In PubChem BioAssay AID1259411 (Chemical Carcinogenesis Research Information System (CCRIS), 2018) one finds carcinogen call data, which are given here for eight compounds.

Calls of active or inactive are those of the source. The rule behind the calls is not given here.

This data set relates to rodent carcinogenicity bioassays, tumor incidence. Kind of data set: CCRIS carcinogenicity studies. The gist of the method: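 NCI-built, expert-reviewed records of carcinogenicity and related test outcomes (mutagenicity, tumor promotion/inhibition) compiled from published and report sources, historical span 1985-2011, not updated.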

Consider `ClC1C(Cl)C(Cl)C(Cl)C(Cl)C1Cl` (configuration not stated), for which the carcinogen call is, setting by setting: (Species: MOUSE, Strain/Sex: B6C3F1/FEMALE, Route: ORAL, Dose: 0, 80, 160 PPM IN DIET FOR 80 WK (STUDY DURATION: 90-91 WK), Dose: 0, 80, 160 PPM IN DIET FOR 80 WK (STUDY DURATION: 90-91 WK)) “inactive; negative”; (Species: MOUSE, Strain/Sex: CF-1/MALE,FEMALE, Route: ORAL, Dose: 200 MG/KG IN DIET, Tumor Site: Type of Lesion: LIVER: BENIGN TUMOR OR MALIGNANT TUMOR) “active; positive”; (Species: MOUSE, Strain/Sex: CF-1/MALE,FEMALE, Route: ORAL, Dose: 400 MG/KG IN DIET, Tumor Site: Type of Lesion: LIVER: BENIGN TUMOR OR MALIGNANT TUMOR) “active; positive”; (Species: MOUSE, Strain/Sex: DD/MALE, Route: ORAL, Dose: 0, 6.6, 66, 660 PPM IN BASAL DIET UNTIL SACRIFICE AT 24 WK (STUDY DURATION: 24 WK), Dose: 0, 6.6, 66, 660 PPM IN BASAL DIET UNTIL SACRIFICE AT 24 WK (STUDY DURATION: 24 WK), Tumor Site: Type of Lesion: LIVER: HEPATOMA) “active; positive”; (Species: MOUSE, Strain/Sex: MALE,FEMALE, Route: ORAL, Tumor Site: Type of Lesion: LIVER: BENIGN TUMOR OR MALIGNANT TUMOR) “active; positive”; (Species: RAT, Strain/Sex: OSBORNE-MENDEL/FEMALE, Route: ORAL, Dose: 0, 135, 270 PPM TWA, IN DIET FOR 80 WK (STUDY DURATION: 108-110 WK), Dose: 0, 135, 270 PPM TWA, IN DIET FOR 80 WK (STUDY DURATION: 108-110 WK)) “inactive; negative”. Further, the carcinogen call was “inactive; negative” (Species: RAT, Strain/Sex: OSBORNE-MENDEL/MALE, Route: ORAL, Dose: 0, 236, 472 PPM TWA, IN DIET FOR 80 WK (STUDY DURATION: 109-110 WK), Dose: 0, 236, 472 PPM TWA, IN DIET FOR 80 WK (STUDY DURATION: 109-110 WK)); “inactive; negative” (Species: Rat, Strain/Sex: Wistar/Female (50/Group), Route: Oral, Dose: 0, 0.06, 0.57, 5.6, 23.1 mg/kg/day of 99.5-99.7% lindane in diet for 18 mo, study duration 18 mo, Dose: 0, 0.06, 0.57, 5.6, 23.1 mg/kg/day of 99.5-99.7% lindane in diet for 18 mo, study duration 18 mo); “inactive; negative” (Species: Rat, Strain/Sex: Wistar/Male (50/Group), Route: Oral, Dose: 0, 0.05, 0.45, 4.5, 18.7 mg/kg/day of 99.5-99.7% lindane in diet for 18 mo, study duration 18 mo, Dose: 0, 0.05, 0.45, 4.5, 18.7 mg/kg/day of 99.5-99.7% lindane in diet for 18 mo, study duration 18 mo).
Regarding `CCS(=O)(=O)c1ccc(S(N)(=O)=O)c2ccccc12`, the carcinogen call runs as follows: (Species: MOUSE, Strain/Sex: A X 1F/FEMALE, Route: ORAL, Dose: 0, 0.01% IN POWDERED OXOID DIET (STUDY DURATION: 333-701 D), Tumor Site: Type of Lesion: BLADDER: CARCINOMA, LUNG: ADENOMA) “active; positive”; (Species: MOUSE, Strain/Sex: A X 1F/FEMALE, Route: ORAL, Dose: 0, 0.01% IN POWDERED OXOID DIET PRECEDED BY IRRADIATION OF 1000 RAD WITH UPPER BODY SHIELDED 48H PRIOR TO DOSING (STUDY, Tumor Site: Type of Lesion: BLADDER: CARCINOMA, LUNG: ADENOMA) “active; positive”.
As to `O=[N+]([O-])c1c2ccc3ccccc3c2cc2ccc3ccccc3c12`, the carcinogen call (Species: MOUSE, Strain/Sex: B6C3F1/MALE, Route: INTRAPERITONEAL, Dose: 0, 400 NMOL IN 35 µL DMSO (TOTAL DOSE) ADMINISTERED IN DOSES OF 1/7, 2/7, AND 4/7 OF THE TOTAL DOSE ON DAYS 1,8, AND 15, Tumor Site: Type of Lesion: LIVER :ADENOMA) was “active; positive”.
For `O[C@@H]1[C@H]2O[C@H]2c2c(ccc3cc4ccc5ccccc5c4nc23)[C@H]1O`, the carcinogen call is, setting by setting: (Species: MOUSE, Strain/Sex: CD-1/FEMALE, Route: INTRAPERITONEAL, Dose: 0, 175 NMOL (TOTAL DOSE) ADMINISTERED AS 1/7 OF DOSE WITHIN 24 HR AFTER BIRTH, 2/7 OF DOSE AT 8 D OLD, 4/7 OF DOSE AT 15, Tumor Site: Type of Lesion: LIVER: TUMOR, LUNG: TUMOR) “active; positive”; (Species: MOUSE, Strain/Sex: CD-1/MALE, Route: INTRAPERITONEAL, Dose: 0, 175 NMOL (TOTAL DOSE) ADMINISTERED AS 1/7 OF DOSE WITHIN 24 HR AFTER BIRTH, 2/7 OF DOSE AT 8 D OLD, 4/7 OF DOSE AT 15, Tumor Site: Type of Lesion: LIVER: TUMOR, LUNG: TUMOR) “active; positive”.
Turning to `CC[N+]([O-])=NC`, the carcinogen call (Species: RAT, Strain/Sex: F344/MALE, Route: ORAL, Dose: 0, 12, 48 MG/ML IN A NEUTRAL DEIONIZED DRINKING WATER SOLUTION 5 D/WK FOR 30 WK (TOTAL DOSE 36; 115 MG) (STUDY DURATION:, Dose: 0, 12, 48 MG/ML IN A NEUTRAL DEIONIZED DRINKING WATER SOLUTION 5 D/WK FOR 30 WK (TOTAL DOSE 36; 115 MG) (STUDY DURATION:, Tumor Site: Type of Lesion: LIVER: CARCINOMA, HEMANGIOSARCOMA, COLON: ADENOCARCINOMA, ADENOMA, ILEUM: TUMOR, Tumor Site: Type of Lesion: LIVER: CARCINOMA, HEMANGIOSARCOMA, COLON: ADENOCARCINOMA, ADENOMA, ILEUM: TUMOR) is “active; positive”.
For `O[C@@H]1c2ccccc2-c2nc3ccccc3cc2[C@H]1O`, the carcinogen call is “inactive; negative” (Species: MOUSE, Strain/Sex: SWISS/FEMALE, Route: INTRAPERITONEAL, Dose: 0, 1.05 UMOL GIVEN AS 150 NMOL IN 5 µL DMSO WITHIN 24 HR OF BIRTH, 300 NMOL IN 10 µL DMSO ON D 8 OF LIFE, AND 600 NMOL I) and “inactive; negative” (Species: MOUSE, Strain/Sex: SWISS/MALE, Route: INTRAPERITONEAL, Dose: 0, 1.05 UMOL GIVEN AS 150 NMOL IN 5 µL DMSO WITHIN 24 HR OF BIRTH, 300 NMOL IN 10 µL DMSO ON D 8 OF LIFE, AND 600 NMOL I).
With `CCOP(=O)=O.CCOP(=O)=O.CCOP(=O)=O.[Al+3]`, the carcinogen call is, setting by setting: (Species: Mouse, Strain/Sex: CD-1/Female (60/Group), Route: Oral) “inactive; negative”; (Species: Mouse, Strain/Sex: CD-1/Male (60/Group), Route: Oral) “inactive; negative”; (Species: Rat, Strain/Sex: CD Sprague-Dawley/Male (80/Group), Route: Oral, Dose: 0, 88, 348, 1372 mg/kg/day in diet for 24 mo, study duration 24 mo, Dose: 0, 88, 348, 1372 mg/kg/day in diet for 24 mo, study duration 24 mo, Tumor Site: Type of Lesion: Adrenal medulla: pheochromocytoma (5/80, 7/79. 15/81, 16/81). Urinary bladder: Carcinoma and papilloma combined (1/78 in) “active; positive. (department of pesticides regulation reviewer described as a possible”; (Species: Rat, Strain/Sex: CD Sprague-Dawley/Male (80/Group), Route: Oral, Dose: 0, 117, 450, 1786 mg/kg/day in diet for 24 mo, study duration 24 mo, Dose: 0, 117, 450, 1786 mg/kg/day in diet for 24 mo, study duration 24 mo) “inactive; negative”.
With `CCCC(OC(C)=O)N(CCCC(=O)OC)N=O` (configuration not stated), the carcinogen call (Species: RAT, Strain/Sex: F344/MALE,FEMALE, Route: SUBCUTANEOUS, Dose: 38 UMOL/KG IN OLIVE OIL 1/WK FOR 10 WK, Tumor Site: Type of Lesion: INJECTION SITE: MALIGNANT FIBROUS HISTIOCYTOMA) is “active; positive”.
